Source: article PMC10786919, “Design-rules for stapled peptides with in vivo activity and their application to Mdm2/X antagonists” (Nature Communications, 2024)
Like-named read-outs stand apart in the source and are kept apart here. Positions of bridges follow the written chain, without caps; N, C: chain ends. Non-standard residues stand in square brackets, D forms with d. Residues, ends and D or L forms follow the SMILES beside them. dPhe(4-CF3) = N[C@H](Cc1ccc(C(F)(F)F)cc1)C(=O)O; dTrp(6-F) = N[C@H](Cc1c[nH]c2cc(F)ccc12)C(=O)O; Lys(N3) = [N-]=[N+]=NCCCC[C@H](N)C(=O)O; R8 = C=CCCCCCC[C@@](C)(N)C(=O)O; Cba = N[C@@H](CC1CCC1)C(=O)O; R5 = C=CCCC[C@@](C)(N)C(=O)O; S5 = C=CCCC[C@](C)(N)C(=O)O; βAla = NCCC(=O)O

Legend:
[1] = tested on: p53 responsive β-lactamase reporter in HCT116 cells; experiment: cells; format: cell-based
Method in brief: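 Read-out used the ToxBLAzer Dual Screen for β-lactamase driven by a stably integrated p53-responsive reporter. Assay: 8000 HCT116 cells per well at 0.5% final DMSO. Reported numbers are geometric means over a minimum of three biological replicates.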

[2] = Lactate dehydrogenase (LDH) release assay; format: cell-based
Method in brief: (§1)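 Geometric means of at least three independent biological runs are given for LDH release measured in HCT116 cells stably expressing a p53-driven β-lactamase reporter. Plating density was 8000 cells/well; DMSO in wells was 0.5%.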

HCT116 cells = experiment: Lactate dehydrogenase (LDH) release assay; format: cell-based
Method in brief: as §1

[3] = Circular dichroism (CD) helicity; format: physicochemical
Description: A total of 5 µL of the 10 mM stock peptide was mixed with 45 µL of 100% methanol, and dried for 2 h in the SpeedVac concentrator (Thermo Scientific). The dried peptide was reconstituted in a buffer (1 mM Hepes pH 7.4 and 5% methanol) to a concentration of 1 mM. The peptide sample was placed in a quartz cuvette with a path length of 0.2 cm. The peptide concentration was determined by the absorbance of the peptide at […]. The CD spectrum was recorded from 300 to 190 nm using the Chirascan-plus qCD machine (Applied Photophysics, Surrey, UK), at 25 °C. All experiments were done in duplicates. The CD spectrum was converted to mean residue ellipticity before deconvolution and estimation of the secondary structure components of the peptide using the CDNN software (distributed by Applied Photophysics). Measurements were taken at least twice and were reported as arithmetic means.

Ca Ski cell line = tested on: Ca Ski cell line
Method in brief: (§2)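 Compound dilution series (10 points, 3-fold, 10 mM top stock in DMSO) tested on overnight-plated Ca Ski cells in RPMI1640/10% FBS and on blasticidin-selected p53RE-bla HCT-116 cells in McCoy's 5A; read-out was CellTiter-Glo 2.0 luminescence after room-temperature equilibration.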

[4] = tested on: CellSensor p53RE-bla HCT-116 Cell Line
Method in brief: as §2

[5] = Nanoclick permeability assay
Method in brief: (§3)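 Azido-peptide permeability was read as loss of NanoBRET signal (donor 450 nm, acceptor 610 nm) after adding NanoBret618-azide at 10 μM final.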

[6] = tested on: cells transiently transfected with the NanoLuc-HaloTag vector; experiment: Nanoclick permeability assay; details: 4Hr
Method in brief: as §3

[7] = 0% FBS 4Hr, read-out: p53 reporter assay EC50
[8] = 10% FBS 16Hr, read-out: p53 reporter assay EC50
[9] = 0% FBS 4Hr, read-out: LDH: Cytotoxicity assay EC50
[10] = 10% FBS 16Hr, read-out: LDH: Cytotoxicity assay EC50
[11] = read-out: Cell Proliferation assay EC50, Ca-Ski, p53 Mut, Ca-Ski
[12] = read-out: Cell Proliferation assay EC50, HCT116, p53 WT, HCT116
[13] = read-out: Cell EC50 (4 hr, 0% FBS), p53 reporter assay, 4 hr, 0% FBS
[14] = read-out: Cell EC50 (16 hr, 10% FBS), p53 reporter assay, 16 hr, 10% FBS
[15] = 0% FBS 16Hr, read-out: p53 reporter assay EC50
[16] = 10% FBS 4Hr, read-out: p53 reporter assay EC50
[17] = Nanoclick permeability assay EC50

SMILES	p53 reporter assay % Effect ([1]; 0% FBS 4Hr) [%]	EC50 [1, 7] [µM]	p53 reporter assay % Effect ([1]; 10% FBS 16Hr) [%]	EC50 [1, 8] [µM]	EC50 [2, 9] [µM]	EC50 [2, 10] [µM]	LDH: Cytotoxicity assay % Effect (HCT116 cells; 0% FBS 4Hr) [%]	LDH: Cytotoxicity assay % Effect (HCT116 cells; 10% FBS 16Hr) [%]	CD % Helicity [3] [%]	EC50 (Ca Ski cell line; [11]) [µM]	EC50 [4, 12] [µM]	cell entry EC50 [5] [µM]	Nanoclick permeability assay % Effect [6] [%]	EC50 ([2]; LDH: Cytotoxicity assay EC50) [µM]	further results
CC(=O)N[C@@H](C(=O)N[C@H](C)C(=O)N[C@H](Cc1c[nH]c2cc(F)ccc12)C(=O)N[C@H](Cc1ccc(O)cc1)C(=O)N[C@H](C)C(=O)N[C@]1(C)CCCC=CCCC[C@](C)(C(=O)N[C@H](CC(C)C)C(=O)N[C@H](CO)C(=O)N[C@H](C)C(=O)N[C@H](C)C(=O)N[C@H](C)C(=O)N[C@H](C)C(=O)N[C@H](C)C(=O)N[C@H](C)C(=O)N[C@H](C)C(=O)N[C@H](C)C(=O)N[C@H](C)C(N)=O)NC(=O)[C@@H](CCC(N)=O)NC(=O)[C@@H](CCC(=O)O)NC(=O)[C@@H](Cc2ccc(C(F)(F)F)cc2)NC1=O)[C@H](C)O [MP-1230] (Ac-[dT][dA][dTrp(6-F)][dY][dA][R5][dPhe(4-CF3)][dE][dQ][R5][dL][dS][dA][dA][dA][dA][dA][dA][dA][dA][dA]-NH2; staple 6-10)	14.85	> 50.4	35.9	> 50.4	> 50.7	> 50.7	4.322	-2.735	8.3	> 49.8	21.4	–	–	–	–
CC(=O)N[C@@H](C(=O)N[C@H](C)C(=O)N[C@H](Cc1c[nH]c2cc(F)ccc12)C(=O)N[C@H](Cc1ccc(O)cc1)C(=O)N[C@H](C)C(=O)N[C@]1(C)CCCC=CCCC[C@](C)(C(=O)N[C@H](CC(C)C)C(=O)N[C@H](CO)C(N)=O)NC(=O)[C@@H](CCC(N)=O)NC(=O)[C@@H](CCC(=O)O)NC(=O)[C@@H](Cc2ccc(C(F)(F)F)cc2)NC1=O)[C@H](C)O [MP-797] (Ac-[dT][dA][dTrp(6-F)][dY][dA][R5][dPhe(4-CF3)][dE][dQ][R5][dL][dS]-NH2; staple 6-10)	74.63	3.61	8.593	> 50.4	> 50.7	> 50.7	33.6	29.91	26.6	30.4	9.09	> 10	69.79	–	improvement of cellular activity vs MP-769 ([1]; 0% serum, 4-hour assay): 3 fold; EC50 [1, 13]: 3.6 µM; EC50 [1, 14]: > 50 µM; EC50 ([2]; 4 hours, 0% serum, read-out: LDH Cytotoxicity assay EC50): > 50 µM; EC50 (Ca Ski cell line; read-out: Proliferation EC50 Ca Ski (Off-target), Ca Ski): 30.4 µM; EC50 ([4]; read-out: Proliferation EC50 HCT116 (On-target), HCT116): 9.1 µM
CC(=O)N[C@@H](CCCCN=[N+]=[N-])C(=O)NCCC(=O)N[C@@H](CC(C)C)C(=O)N[C@H](C(=O)N[C@@H](Cc1ccccc1)C(=O)N[C@]1(C)CCCCCCC=CCCC[C@@](C)(C(=O)N2CCC[C@@H]2C(=O)N2CCC[C@@H]2C(=O)N2CCC[C@@H]2C(=O)N2CCC[C@@H]2C(=O)N2CCC[C@@H]2C(=O)N2CCC[C@@H]2C(N)=O)NC(=O)[C@H](CC2CCC2)NC(=O)[C@H](CCC(N)=O)NC(=O)[C@H](C)NC(=O)[C@H](Cc2c[nH]c3ccccc23)NC(=O)[C@H](Cc2ccc(O)cc2)NC(=O)[C@H](CCC(=O)O)NC1=O)[C@@H](C)O [MP-896]	–	–	–	–	–	–	–	–	19.15	> 49.8	–	1.42	114.3	–	p53 reporter assay: % Effect ([1]; 0% FBS 4Hr): 28.91%; EC50 ([1]; 0% FBS 4Hr, read-out: p53 reporter assay: EC50): > 50.4 µM; p53 reporter assay: % Effect ([1]; 10% FBS 16Hr): 32.76%; EC50 ([1]; 10% FBS 16Hr, read-out: p53 reporter assay: EC50): > 50.4 µM; EC50 [1, 13]: > 50 µM; EC50 [1, 14]: > 50 µM; EC50 ([2]; 0% FBS 4Hr, read-out: LDH: Cytotoxicity assay: EC50): > 50.7 µM; EC50 ([2]; 10% FBS 16Hr, read-out: LDH: Cytotoxicity assay: EC50): > 50.7 µM; LDH: Cytotoxicity assay: % Effect (HCT116 cells; 0% FBS 4Hr): -5.717%; LDH: Cytotoxicity assay: % Effect (HCT116 cells; 10% FBS 16Hr): 1.172%; Aqueous solution helicity ([3]; circular dichroism): 19.15%
CC(=O)N[C@@H](CCCCN=[N+]=[N-])C(=O)NCCC(=O)N[C@@H](CC(C)C)C(=O)N[C@H](C(=O)N[C@@H](Cc1ccccc1)C(=O)N[C@]1(C)CCCCCCC=CCCC[C@@](C)(C(=O)N[C@@H](CO)C(=O)N[C@@H](C)C(=O)N[C@@H](C)C(N)=O)NC(=O)[C@H](CC2CCC2)NC(=O)[C@H](CCC(N)=O)NC(=O)[C@H](C)NC(=O)[C@H](Cc2c[nH]c3ccccc23)NC(=O)[C@H](Cc2ccc(O)cc2)NC(=O)[C@H](Cc2c[nH]c3ccccc23)NC1=O)[C@@H](C)O [MP-185] (Ac-[Lys(N3)][βAla]LTF[R8]WYWAQ[Cba][S5]SAA-NH2; staple 6-13)	–	0.137	–	–	–	–	–	–	–	–	–	–	140.4	> 50	EC50 [1, 15]: 0.214 µM; p53 reporter assay % Effect ([1]; 10% FBS 4Hr): 14.92%; EC50 [1, 16]: 1.86 µM; EC50 (Ca Ski cell line; 72 h): > 49.8 µM; EC50 ([4]; 72 h): 1.97 µM; cell entry EC50 [5, 17]: 0.0774 µM
CC(=O)N[C@@H](C(=O)N[C@H](C)C(=O)N[C@H](Cc1c[nH]c2cc(F)ccc12)C(=O)N[C@H](Cc1ccc(O)cc1)C(=O)N[C@H](C)C(=O)N[C@]1(C)CCCC=CCCC[C@](C)(C(=O)N[C@H](CC(C)C)C(=O)N[C@H](CO)C(=O)N[C@H](C)C(=O)N[C@H](C)C(=O)N[C@H](C)C(N)=O)NC(=O)[C@@H](CCC(N)=O)NC(=O)[C@@H](CCC(=O)O)NC(=O)[C@@H](Cc2ccc(C(F)(F)F)cc2)NC1=O)[C@H](C)O [MP-0230] (Ac-[dT][dA][dTrp(6-F)][dY][dA][R5][dPhe(4-CF3)][dE][dQ][R5][dL][dS][dA][dA][dA]-NH2; staple 6-10)	96.81	1.44	84.65	4.34	–	–	–	–	49.95	–	–	–	30.67	> 50.7	cell entry EC50 [5, 17]: > 10 µM
CC(C)C[C@@H](NC(=O)[C@@]1(C)CCCC=CCCC[C@@](C)(NC(=O)[C@@H](C)NC(=O)[C@@H](Cc2ccc(O)cc2)NC(=O)[C@@H](Cc2c[nH]c3cc(F)ccc23)NC(=O)[C@@H](C)NC(=O)[C@H](N)[C@H](C)O)C(=O)N[C@H](Cc2ccc(C(F)(F)F)cc2)C(=O)N[C@H](CCC(=O)O)C(=O)N[C@H](CCC(N)=O)C(=O)N1)C(=O)N[C@H](CO)C(N)=O [MP-795] (H-[dT][dA][dTrp(6-F)][dY][dA][R5][dPhe(4-CF3)][dE][dQ][R5][dL][dS]-NH2; staple 6-10)	142.6	5.18	21.51	> 50.4	> 50.7	> 50.7	13.17	16.65	–	22.5	26.4	> 10	23.68	–	–
CC(=O)N[C@@H](CC(C)C)C(=O)N[C@H](C(=O)N[C@@H](Cc1ccccc1)C(=O)N[C@]1(C)CCCCCCC=CCCC[C@@](C)(C(=O)N[C@@H](CO)C(=O)N[C@@H](C)C(=O)N[C@@H](C)C(N)=O)NC(=O)[C@@H](CC2CCC2)NC(=O)[C@H](CC(C)C)NC(=O)[C@H](CCC(N)=O)NC(=O)[C@H](Cc2c[nH]c3ccccc23)NC(=O)[C@H](Cc2ccc(O)cc2)NC(=O)[C@H](CCC(=O)O)NC1=O)[C@@H](C)O [MP-009]	–	8.27	–	–	–	–	–	–	23.85	–	–	–	22.02	> 50.7	EC50 [1, 15]: 29.5 µM; EC50 [1, 16]: > 50.6 µM
